Consider three compounds from patent US20220000878A1, “METHODS OF TREATMENT OF MALIGNANCIES” (Servier Pharmaceuticals, LLC, priority 2015, published 2022).

In general, solubility refers to the dissolved amount per volume that the medium holds. Read a low solubility as a poorly soluble substance.

In brackets after ≈: the same amount, converted by molar mass. Entries after “also recorded” stand apart in the source; their conditions may differ.

For data set [1], the system named is 2-HG. In words: Phase 1/2 study AG221-C-001: pharmacodynamic response (2-HG plasma levels). It is filed as in vivo, human. The source says:
(§1) This is a Phase 1/2, multicenter, open-label, 3-part (Phase 1 dose escalation, Phase 1 Part 1 Expansion, and Phase 2), safety, PK/PD, and clinical activity evaluation of orally administered COMPOUND 1 in subjects with advanced hematologic malignancies that harbor an IDH2 mutation. The study includes a dose escalation phase to determine MTD/MAD and/or RP2D, an expansion phase (Part 1) to further evaluate the safety, tolerability, and clinical activity of COMPOUND 1, and a Phase 2 to assess the clinical efficacy of COMPOUND 1 at the RP2D and to further evaluate safety in subjects with refractory and relapsed AML carrying an IDH2 mutation.
Subjects in the dose escalation phase and Part 1 Expansion also will undergo PK/PD assessments over a 10-hour period on C1D15, C2D1, and C4D1. […] These subjects will have urine collected for PK/PD evaluation at screening; prior to dosing on C1D15, C2D1 and Day 1 of all cycles thereafter; and at the End of Treatment visit. Available bone marrow biopsy samples also will be assessed for 2-HG and α-KG levels.
The starting dose of COMPOUND 1 recommended for evaluation is 100 mg QD. This is based on the safety, PK, pharmacodynamics and clinical activity of COMPOUND 1 observed to date in AG221-C-001. […] Thus a dose of 100 mg should adequately achieve inhibition of 2-HG in subjects with either R140Q or R172K mutation.
Serial blood sampling for determination of concentration-time profiles of COMPOUND 1 and its metabolite (6-(6-(trifluoromethyl)pyridin-2-yl)-N2-(2-(trifluoromethyl)pyridin-4-yl)-1,3,5-triazine-2,4-diamine). Urine sampling for determination of concentrations of COMPOUND 1 and its metabolite (6-(6-(trifluoromethyl)pyridin-2-yl)-N2-(2-(trifluoromethyl)pyridin-4-yl)-1,3,5-triazine-2,4-diamine) (dose escalation and Part 1 expansion subjects only). Blood and bone marrow sampling for determination of 2-HG and α-KG levels.

In data set [2] the test system is advanced hematologic malignancies with an IDH2 mutation. The data set is described as follows: Phase 1/2 study AG221-C-001: clinical activity and safety. It counts as in vivo, human.
Source text: as §1
Subjects in the dose escalation phase and Part 1 Expansion will have the extent of their disease assessed, including bone marrow biopsies and/or aspirates and peripheral blood, at screening, on C1D15, C2D1, and C3D1, every 28 days (peripheral blood only) or every 56 days (bone marrow biopsies and/or aspirates and peripheral blood) thereafter while on study drug treatment, independent of dose delays and/or dose interruptions, and/or at any time when progression of disease is suspected. Response to treatment and treatment decisions in all subjects will be determined by the Investigators based on modified International Working Group (IWG) response criteria or other appropriate response criteria for the malignancy under study. […]

The test system is the same in data set [3]. In words: NRAS mutation status and COMPOUND 1 response (next generation sequencing of screening samples, Fisher's exact test). It is filed as in vivo, human. The procedure: A subset of the clinical samples from the trial described in Example 1 were analyzed at screening. Sample types included bone marrow, peripheral blood and mononuclear cells isolated from bone marrow or peripheral blood. DNAs were extracted from these samples and sequenced at Foundation Medicine (see http://foundationone.com/learn.php) using next generation sequencing technique.
A total of 60 genes were identified to carry at least one mutation in the analyzed set (including IDH2 gene). Fisher's exact test was conducted to evaluate the association of somatic mutations with clinical response (responders include CR, CRp, CRi and PR, indicated as +, while none-responders include SD and PD, indicated as—in Table 11). The P-values were adjusted by multiple-test correction.
Mutation status positive (+) means any known mutation(s) in NRAS, and negative (−) means no mutation in NRAS was present.
Positive response status (+) includes CR, mCR and PR and negative response status (−) includes stable disease (SD) and progressive disease (PD).

The test system of data set [4] is advanced hematologic malignancies with an IDH1 mutation. The data set is described as follows: NRAS mutation status and COMPOUND 2 response (subset of clinical samples of the Phase 1 trial). It is filed as in vivo, human. The settings on record: cancer with mutant allele of IDH1. The source says:
This study is a Phase 1, multicenter, open-label, dose-escalation, safety, PK/PD, and clinical activity evaluation of orally administered COMPOUND 2 in subjects with advanced hematologic malignancies that harbor an IDH1 mutation. The study includes a dose escalation phase to determine MTD and/or RP2D followed by expansion arms to further evaluate the safety, tolerability, and clinical activity of COMPOUND 2 in select populations.
A analysis of a subset of the clinical samples from the trial for COMPOUND 2 was conducted. FIG. 14 provides a visual of NRAS mutations according to response categories for COMPOUND 2. FIG. 14 profiles bone marrow at screening visit for patients only where genes were mutated in ≥2. In FIG. 14, genes (y-axis) are shown in decreasing order of frequency, with the exception of IDH2, while patients (x-axis) are grouped by response then by similarity in alterations; only patients from dose escalation phase with an evaluable response included.
A subset of the clinical samples from the trial for COMPOUND 2 described in Example 3 was analyzed for mutations in the samples. FIG. 14 provides a visual of commutations, including NRAS mutations according to response categories for COMPOUND 2. FIG. 14 profiles bone marrow at screening visit for patients only where genes were mutated in ≥2. […]

A short description of data set [5]: solubility in fasted state simulated intestinal fluid (FASSIF). As to conditions: pH 6.1, fassif, thermodynamic from solid, pH of 6.1 at 4 hours. It counts as physicochemical. The procedure: In comparison, amorphous spray-dried dispersions have a solubility of about 0.05 mg/mL to about 0.50 mg/mL in FASSIF at 3 hours.

Take `CC(C)(O)CNc1nc(Nc2ccnc(C(F)(F)F)c2)nc(-c2cccc(C(F)(F)F)n2)n1` [COMPOUND 1, 2-methyl-1-[(4-[6-(trifluoromethyl)pyridin-2-yl]-6-{[2-(trifluoromethyl)pyridin-4-yl]amino}-1,3,5-triazin-2-yl)amino]propan-2-ol]: the “reduction in 2-HG plasma levels” value in data set [1] (by Day 1 of Cycle 2) is given as “sustained reduction”. Besides, in data set [1] (most subjects with R140Q mutation, all doses, plasma), the “inhibition of 2-HG” value is on record as “up to 98%”. Besides, the “dose dependence of exposure and inhibition of 2-HG” value in data set [1] (subjects with R172K mutation) was “Increasing dose is associated with higher exposure and inhibition of 2-HG”. Also, in data set [2] (100 mg), the “safety profile, including ≥Grade 3” value was “consistent with that of lower doses”. The overall response rate in data set [2] (44 subjects treated at 100 mg QD, preliminary efficacy data) is 36.4%. For the same compound, the “association of NRAS mutation status with response” value in data set [3] (cancer with mutant allele of IDH2) is reported as “associated with responses; also recorded: significantly associated”. The “number of patients, response status − , NRAS mutation +” value in data set [3] (non-responders (SD, PD), any known NRAS mutation) is recorded as 21. Also, in data set [3] (non-responders (SD, PD), no NRAS mutation), the “number of patients, response status − , NRAS mutation −” value was 40. In addition, the “number of patients, response status + , NRAS mutation +” value in data set [3] (responders, any known NRAS mutation, N = 118 analyzed) was found to be 2. In addition, in data set [3] (responders, no NRAS mutation, N = 118 analyzed), the “number of patients, response status + , NRAS mutation −” value is reported as 55.

`N#Cc1ccnc(N2C(=O)CC[C@H]2C(=O)N(c2cncc(F)c2)[C@H](C(=O)NC2CC(F)(F)C2)c2ccccc2Cl)c1` [COMPOUND 2, (S)—N—((S)-1-(2-chlorophenyl)-2-((3,3-difluorocyclobutyl)amino)-2-oxoethyl)-1-(4-cyanopyridin-2-yl)-N-(5-fluoropyridin-3-yl)-5-oxopyrrolidine-2-carboxamide]: the “association of NRAS mutation status with response” value in data set [4] is given as “associated with responses”.

As for `N#Cc1ccnc(N2C(=O)CC[C@H]2C(=O)N(c2cncc(F)c2)[C@H](C(=O)NC2CC(F)(F)C2)c2ccccc2Cl)c1` [Form 2], the solubility at 4 h in data set [5] is ~18 µg/mL (≈ 30.9 µM).
